Results published in patent publication US4020111A, “Propynyloxy alkyl arene insecticides” (priority 1975, dated 1977).

Experiments:
[1] = tested on: IN/WHO strain house flies; assay: topical application test, percent kill after 24 hours, IN/WHO strain; type: in vivo, house fly (susceptible IN/WHO strain); details: HRS 1422 alone 0.125 μg/fly
Method: In Table IX, and in the tables following it, the doses of topically applied insecticides and of synergists unless otherwise noted are expressed as micrograms per fly (μg/fly).
The synergistic effect of O-(2-propynyl) oximes with mobam was determined from topical application tests on susceptible, female, IN/WHO strain house flies and from tests on resistant, female, Rutgers A strain house flies. The synergist and insecticide were dissolved in ACS Grade acetone in such quantities that a 1.0μ liter volume applied to the thorax of 3-to-5 day old CO2 -anesthetized female adult house flies contained the desired dosage. After being treated, the flies were confined, 10 to a plaster petri dish, with 3-5 dishes/treatment, and held for 24-hr. observation of mortality. Reconstituted skim milk on cotton dental wicks was provided during the holding period. The percent kills after 24 hours are shown in Table X for the IN/WHO strain and Table XI for the Rutgers A strain.
The synergistic effect of benzyl 2-propynyl ethers with mobam was determined from topical application tests on IN/WHO and Rutgers A strain houseflies, following the procedure of Example 5. The percent kills after 24 hours are shown in Table XIV for the IN/WHO strain and in Table XV for the Rutgers A strain.
The effects of varying the insecticide dose and the synergist-insecticide ratio are further illustrated, with synergist compounds II-D, II-E, II-F and Mobam insecticide, in Tables XVI, XVII and XVIII.
The synergistic effect on IN/WHO flies of synergist compound II-K with Dimetilan, pyrolan, Baygon and HRS 1422 is illustrated by the 24 hour percent mortality data in Tables XIX, XX and XXI.
The effect on IN/WHO flies of synergist compound IV-C, identified in Table IV, with mobam was determined by the topical application procedure of Example 5.
The synergistic effect with Diazinon of compounds I-B, I-D, I-F, I-G, I-H and I-I, identified in Tables I and Ia, was determined from topical application tests on IN/WHO strain houseflies and on Rutgers A strain houseflies by the procedure of Example 5. The percent kills after 24 hours are shown in Table XXV for the IN/WHO strain and Table XXVI for the Rutgers A strain.
The synergistic effect with GS 13005 of compounds I-A, I-B, I-D, I-E, I-F, I-G and I-I was determined from topical application tests to IN/WHO strain, Rutgers A strain and polyvalent CH strain houseflies using the procedures of Example 5. The percent kills of the IN/WHO strain flies after 24 hours are shown in Table XXVIII; of the Rutgers A strain, in Table XXIX; and of the polyvalent CH strain, in Table XXX. The doses of insecticide alone to the CH strain files caused 10-40% mortality.
The synergistic effect with Diazinon and GS 13005 of various of the benzyl 2-propynyl ethers identified in Tables II and IIa was determined by topical application tests on IN/WHO strain, and Rutgers A strain and polyvalent, resistant, CH strain houseflies using the procedures of Example 5. The percent kills after 24 hours of IN/WHO strain flies are shown in Table XXXI; of Rutgers A strain flies, in Table XXXII; and of CH strain flies, in Table XXXIII. The doses of insecticide alone to the CH strain flies caused 10-40% mortality.
The synergist effect on IN/WHO flies of synergist compound II-K with Gardona and Bidrin is illustrated by the 24 hour percent mortality data in Tables XXXIV and XXXV.
The synergistic effect on IN/WHO strain flies and Rutgers A strain flies of compound IV-C with GS 13005 and with Diazinon was determined by the topical application procedure of Example 5. The percent kills of IN/WHO strain flies after 24 hours are shown in Tables XXXVI and XXXVII; the percent kills of Rutgers A strain flies are shown in Tables XXXVIII and XXXIX.

[2] = tested on: Wilson strain house flies; type: in vivo, house fly (susceptible Wilson strain); details: for Contact Synergistic Ratio, Carbaryl (LC50 insecticide alone / LC50 with synergist): in vivo; for Contact Synergistic Ratio, Pyrolan (LC50 insecticide alone / LC50 with synergist): synergist to insecticide 5:1 by weight, 24 h
Method: The required solutions of the insecticide and of the synergist compound were prepared in acetone at a concentration of one milligram per milliliter. One-pint wide mouth glass jars were coated wiith the appropriate insecticide-synergist combination by rolling the jars containing aliquots of the appropriate solutions diluted to three milliliters with acetone to deposit, by evaporation, a film of the test materials. The flies were transferred under carbon dioxide anesthesia and held in the jar at room temperature. Perforated aluminum foil was used to cover the jars and to hold cotton saturated with 10% sugar solution. Counts were made at intervals, but the recorded mortality was based on 24-hour kill, rather than knockdown. All prostrate nonmoving flies were considered dead. A determination was then made of the contact synergistic ratio [SR], which is the ratio of the LC50 of insecticide alone to the LC50 of the insecticide when applied together with the synergist. The LC50 of the insecticide was estimated from a log-probit plot of percent kill versus dosage. […] The LC50 of the combination of insecticide and synergist was determined at a synergist to insecticide parts by weight ratio of five to one.

mice [3] = assay: extension of Noludar sleeping time by synergists; type: in vivo, Swiss albino white male mice; details: Noludar 110 mg/K, synergist 110 mg/K; for Relative Sleeping Time: treated/control
Method: (§1) The selectivity of the synergist compounds of this invention is illustrated by the results of sleeping-time extension tests and of acute toxicity tests on Swiss albino white male mice.
(§2) The effect of various synergist compounds on sleeping time of sodium secobarbital [Secobarbital] and of 3,3-diethyl-5-methyl-2,4-dioxypiperidine [Noludar] was determined by administering the drug, with and without synergist, to approximately 38-day old male mice weighing from 25 to 30 grams. Synergists were administered in each of two doses, 74.0 mg/kg (dilution being 2.0 mg/0.1 ml corn oil), and 110.0 mg/kg (dilution 3.0 mg/0.1 ml oil). Secobarbital was administered at a dose of 37.0 mg/kg (dilution 1.0 mg/0.1 ml water). Noludar was administered at a dose of 110.0 mg/kg (dilution 3.0 mg/0.1 ml water). The synergist was administered one hour prior to administration of the Secobarbital or Noludar. Secobarbital and Noludar sleeping times were obtained for both the control (drug only) and the treated (synergist plus drug) mice by noting the time lapse between the administration of the drug and the recovery of the righting reflex, i.e. when the animal regains conciousness and can walk up an inclined wooden tray with coordination. The relative sleeping time (R.S.) was noted. The R.S. is the extended sleeping time in the treated mice (synergist plus drug) divided by the sleeping time in the control mice (drug only). The mean sleeping time for the treated mice and the R.S. are shown on Table XXXXIV for various synergist compounds.

mice [4] = assay: extension of Secobarbital sleeping time by synergists; type: in vivo, Swiss albino white male mice; details: Secobarbital 37 mg/K; for Relative Sleeping Time: treated/control
Method: as §1, §2

mice [5] = assay: synergism of acute toxicity of Dimetilan, GS 13005, Secobarbital and Methadone (intraperitoneal); type: in vivo, Swiss albino white male mice; details: for number of mice dead: 48 hours, of eight mice
Method: The synergism of the acute toxicity of Dimetilan by various synergists was determined by tests on Swiss albino, white male mice aged 5 to 6 weeks and weighing 23 to 27 grams. The synergists and insecticides were dissolved in corn oil and the drugs were dissolved in distilled water. All compounds were administered intraperitoneally by injection in the lower quadrent of the abdomen. The synergist was administered in 0.1 ml of corn oil 1 hour prior to administration of the insecticide. Eight mice were treated, per dosage, with each synergist. The mice were watched for a minimum of 6 hours while held in a glass jar with bedding individually after intraperitoneal injection of the test solutions. Lethality was noted, the animals were weighed and transferred in cages, and food and water were supplied. Control mice were given 0.1 ml of corn oil at the time of administration of the synergist to the test mice and 0.1 ml corn oil plus Dimetilan at the time of administration of the insecticide to the test mice.
By the same procedure, the synergism of acute toxicity of GS 13005, Secobarbital and 6-dimethylamino-4,4-diphenyl-3-heptanone [Methadone] was determined.

[6] = Dimetilan 8 mg/kg + synergist 240 mg/kg ip
[7] = Dimetilan 8 mg/kg + synergist 80 mg/kg ip

SMILES | Contact Synergistic Ratio, Carbaryl (LC50 insecticide alone / LC50 with synergist) [2] | Contact Synergistic Ratio, Pyrolan (LC50 insecticide alone / LC50 with synergist) [2] | Mean Sleeping Time (mice [3]) [min] | Relative Sleeping Time (mice [3]) | Mean Sleeping Time (mice [4]; synergist 74 mg/K) [min] | Relative Sleeping Time (mice [4]; synergist 74 mg/K) | Mean Sleeping Time (mice [4]; synergist 110 mg/K) [min] | Relative Sleeping Time (mice [4]; synergist 110 mg/K) | number of mice dead (mice [5]; [6]) | number of mice dead (mice [5]; [7]) | also measured
CNC(=O)Oc1cc(C(C)C)cc(C(C)C)c1 [HRS 1422, 3,5-di-isopropylphenyl methylcarbamate, reference compound] |  |  |  |  |  |  |  |  |  |  | 24 hour percent mortality [1]: 0%
C#CCON=Cc1ccc(N(C)C)cc1 [I-C] | 200 | 20 | 34 | 1.0 | 30 | 1.1 | 108 | 1.8 | 0 |  | 
C#CCOCc1ccc(Cl)cc1 [II-A] | 50 | 7 |  |  |  |  |  |  |  |  | 
C#CCOCc1ccc(Cl)cc1Cl [II-B] | 50 | 15 |  |  |  |  |  |  |  |  | 
C#CCOCc1ccc2c(c1)OCO2 [II-G] | 100 | 15 |  |  |  |  |  |  |  |  | 
C#CCOCc1cccc(Cl)c1[N+](=O)[O-] [II-I] |  |  | 56 | 1.8 | 31 | 1.2 | 32 | 1.3 | 3 | 0 | 
C#CCOCc1ccc(Cl)cc1[N+](=O)[O-] [II-J] |  |  | 70 | 2.2 | 27 | 1.0 | 30 | 1.4 | 4 | 0 | mice lethality (number dead) (mice [5]; GS 13005 71 mg/kg + synergist 213 mg/kg): 6; mice lethality (number dead) (mice [5]; Methadone 32 mg/kg + synergist 215 mg/kg): 3; mice lethality (number dead) (mice [5]; Secobarbital 90 mg/kg + synergist 215 mg/kg): 0
C#CCOCc1cccc([N+](=O)[O-])c1Cl [II-L] |  |  | 56 | 1.8 | 31 | 1.0 | 42 | 1.8 | 5 | 0 | 
C#CCOCc1ccc(Cl)c([N+](=O)[O-])c1 [II-M] |  |  | 47 | 2.1 | 29 | 1.0 | 47 | 2 | 3 | 0 | 
C#CCOCc1ccc([N+](=O)[O-])cc1Cl [II-N] |  |  | 58 | 1.9 | 20 | 1.0 | 39 | 1.7 | 4 | 0 | 
C#CCOCc1ccc([N+](=O)[O-])c(Cl)c1 [II-O] |  |  | 52 | 2.4 |  |  | 26 | 1.1 | 2 | 0 | 
C#CCn1ncc2cc([N+](=O)[O-])ccc21 [III-A] | 143 | 30 | 32 | 1.0 |  |  | 50 | 1.1 | 0 |  | 
C#CCn1nc(Cl)c2ccccc21 [III-B] | 117 | 30 | 46 | 1.0 |  |  | 6 | 1.3 | 0 |  | 
C#CCn1nc(Cl)c2ccc([N+](=O)[O-])cc21 [III-C, N-(2-propynyl)-3-chloro-6-nitroindazole] | 53 | 10 |  |  |  |  |  |  |  |  | 
C#CCOC(c1cccc2ccccc12)C(C)[N+](=O)[O-] (stereo not shown) [IV-B, 2-propynyl 1-naphthyl-2-nitropropyl ether] | 50 | 10 |  |  |  |  |  |  |  |  | 
CCC(=O)C(CC(C)N(C)C)(c1ccccc1)c1ccccc1 (stereo not shown) [Methadone, 6-dimethylamino-4,4-diphenyl-3-heptanone, reference compound] |  |  |  |  |  |  |  |  |  |  | mice lethality (number dead) (mice [5]; control: Methadone 32 mg/kg in 0.1 ml corn oil): 2
C=CCC1(C(C)CCC)C(=O)NC(=O)NC1=O (stereo not shown) [Secobarbital, sodium secobarbital, reference compound] |  |  |  |  |  |  |  |  |  |  | mice lethality (number dead) (mice [5]; control: Secobarbital 90 mg/kg in 0.1 ml corn oil): 0
